Test results: patent publication US10519134B2, “Pyrazole compounds and methods of making and using same” (Lundbeck La Jolla Research Center, Inc., priority 2015, dated 2019)

Columns and labels:
Format in all cases: biochemical
[1] = molecular target: T1, MAGL (Homo sapiens, UniProt Q99685); experiment: In vitro competitive activity-based protein profiling (human), MAGL gel band
T1 construct: Proteomes (human prefrontal cortex or cell membrane fractions); from tissue; host or cells: human prefrontal cortex (or cell membrane fractions)
T1 sequence (Q99685 1-303): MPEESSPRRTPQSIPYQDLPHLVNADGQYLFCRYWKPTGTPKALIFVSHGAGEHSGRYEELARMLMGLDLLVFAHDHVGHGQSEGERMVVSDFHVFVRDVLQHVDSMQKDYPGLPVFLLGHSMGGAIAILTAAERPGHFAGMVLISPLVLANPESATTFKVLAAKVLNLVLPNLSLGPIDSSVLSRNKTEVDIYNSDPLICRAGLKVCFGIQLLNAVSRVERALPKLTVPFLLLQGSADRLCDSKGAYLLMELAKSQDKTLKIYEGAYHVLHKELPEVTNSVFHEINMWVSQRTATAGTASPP
Experimental: In Vitro Competitive Activity-Based Protein Profiling (Human).
Proteomes (human prefrontal cortex or cell membrane fractions) (50 μL, 1.0-2.0 mg/mL total protein concentration) were preincubated with varying concentrations of inhibitors at 37° C. After 30 min, FP-Rh or JW912 (1.0 μL, 50 μM in DMSO) was added and the mixture was incubated for another 30 min at room temperature. Reactions were quenched with SDS loading buffer (15 μL—4×) and run on SDS-PAGE. Following gel imaging, serine hydrolase activity was determined by measuring fluorescent intensity of gel bands corresponding to MAGL using ImageJ 1.49k software.

[2] = molecular target: T2, FAAH (Mus musculus, UniProt O08914); experiment: In vitro competitive activity-based protein profiling (mouse), FAAH gel band; details: read-out: FAAH % inh. 1 μM
T2 construct: Proteomes (mouse brain membrane fraction or cell lysates); from tissue; host or cells: mouse brain membrane fraction (or cell lysates)
T2 sequence (O08914 1-579): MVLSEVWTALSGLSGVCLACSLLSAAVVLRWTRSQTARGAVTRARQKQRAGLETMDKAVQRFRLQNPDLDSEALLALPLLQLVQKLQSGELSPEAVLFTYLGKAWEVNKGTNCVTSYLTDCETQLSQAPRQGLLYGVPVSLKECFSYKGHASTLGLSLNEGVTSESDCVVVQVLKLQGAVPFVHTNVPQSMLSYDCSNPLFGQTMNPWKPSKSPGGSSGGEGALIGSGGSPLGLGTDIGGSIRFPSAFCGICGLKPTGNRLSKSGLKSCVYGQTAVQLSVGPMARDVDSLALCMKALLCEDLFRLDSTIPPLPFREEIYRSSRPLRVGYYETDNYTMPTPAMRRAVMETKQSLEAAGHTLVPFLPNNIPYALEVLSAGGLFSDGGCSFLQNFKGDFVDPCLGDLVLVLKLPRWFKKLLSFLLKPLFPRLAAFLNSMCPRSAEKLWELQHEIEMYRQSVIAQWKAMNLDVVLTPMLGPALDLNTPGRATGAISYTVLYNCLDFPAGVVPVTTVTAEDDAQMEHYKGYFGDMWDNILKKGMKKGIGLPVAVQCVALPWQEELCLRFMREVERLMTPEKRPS
How it was run: (§1)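 Gel-based competitive ABPP: proteome 1.0 mg/mL, inhibitor 30 min 37 °C, then FP-Rh or HT-01 probe (stock 50 μM) 30 min 37 °C; SDS quench, SDS-PAGE, in-gel fluorescence of the enzyme band quantified.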

[3] = molecular target: T3, MAGL (Mus musculus, UniProt O35678); experiment: In vitro competitive activity-based protein profiling (mouse), MAGL gel band; details: read-out: MAGL % inh. 1 μM
T3 construct: Proteomes (mouse brain membrane fraction or cell lysates); from tissue; host or cells: mouse brain membrane fraction (or cell lysates)
T3 sequence (O35678 1-303): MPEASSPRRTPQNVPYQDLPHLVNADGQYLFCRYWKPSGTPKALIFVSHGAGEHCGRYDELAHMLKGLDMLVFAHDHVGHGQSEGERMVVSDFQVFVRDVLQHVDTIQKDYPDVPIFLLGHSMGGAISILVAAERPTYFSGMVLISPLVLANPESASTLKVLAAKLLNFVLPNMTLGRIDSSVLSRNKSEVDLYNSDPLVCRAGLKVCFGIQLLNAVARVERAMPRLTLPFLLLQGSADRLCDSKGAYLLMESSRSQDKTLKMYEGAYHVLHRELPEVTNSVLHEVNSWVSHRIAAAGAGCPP
How it was run: as §1

Structure (SMILES)	IC50 [1] [nM]	inhibition at 1 µM [2] [%]	inhibition at 1 µM [3] [%]
CC1CCCN1c1cc(C(F)(F)F)ccc1CN1CCN(C(=O)n2ccc(NS(C)(=O)=O)n2)CC1 (stereo not drawn) [Example 189, N-(1-(4-(2-(2-methylpyrrolidin-1-yl)-4-(trifluoromethyl)benzyl)piperazine-1-carbonyl)-1H-pyrazol-3-yl) methanesulfonamide]	≤ 100	0 to 25	≥ 75
CS(=O)(=O)Nc1ccn(C(=O)N2CCN(Cc3ccc(C(F)(F)F)cc3N3CCC(C(=O)O)C3)CC2)n1 (stereo not drawn) [Example 190, 1-(2-((4-(3-(methylsulfonamido)-1H-pyrazole-1-carbonyl)piperazin-1-yl)methyl)-5-(trifluoromethyl)phenyl) pyrrolidine-3-carboxylic acid]	≤ 100	0 to 25	≥ 75
CC1CCCN1c1cc(CN2CCN(C(=O)n3ccc(NS(C)(=O)=O)n3)CC2)cc(C(F)(F)F)c1 (stereo not drawn) [Example 191, N-(1-(4-(3-(2-methylpyrrolidin-1-yl)-5-(trifluoromethyl)benzyl)piperazine-1-carbonyl)-1H-pyrazol-3-yl) methanesulfonamide]	≤ 100	0 to 25	≥ 75
CS(=O)(=O)Nc1ccn(C(=O)N2CCN(Cc3cc(N4CCC4)cc(C(F)(F)F)c3)CC2)n1 [Example 192, N-(1-(4-(3-(azetidin-1-yl)-5-(trifluoromethyl)benzyl)piperazine-1-carbonyl)-1H-pyrazol-3-yl) methanesulfonamide]	≤ 100	0 to 25	≥ 75
CS(=O)(=O)Nc1ccn(C(=O)N2CCC3(CCCN3Cc3cc(Cl)cc(N4CCCC4)c3)CC2)n1 [Example 193, N-(1-(1-(3-chloro-5-(pyrrolidin-1-yl)benzyl)-1,8-diazaspiro[4.5]decane-8-carbonyl)-1H-pyrazol-3-yl) methanesulfonamide]	≤ 100	0 to 25	≥ 75
CS(=O)(=O)Nc1ccn(C(=O)N2CCN(Cc3cc(N4CCCC4)ccc3Cl)CC2)n1 [Example 194, N-(1-(4-(2-chloro-5-(pyrrolidin-1-yl)benzyl)piperazine-1-carbonyl)-1H-pyrazol-3-yl) methanesulfonamide]	100 to 1000	0 to 25	≥ 75
CS(=O)(=O)Nc1ccn(C(=O)N2CCN(Cc3ccc(C(F)(F)F)cc3N3CCC(F)CC3)CC2)n1 [Example 196, N-(1-(4-(2-(4-fluoropiperidin-1-yl)-4-(trifluoromethyl)benzyl)piperazine-1-carbonyl)-1H-pyrazol-3-yl) methanesulfonamide]	≤ 100	0 to 25	≥ 75
CS(=O)(=O)Nc1ccn(C(=O)N2CCC3(CCCN3Cc3ccc(C(F)(F)F)cc3Cl)CC2)n1 [Example 197, N-(1-(1-(2-chloro-4-(trifluoromethyl)benzyl)-1,8-diazaspiro[4.5]decane-8-carbonyl)-1H-pyrazol-3-yl) methanesulfonamide]	≤ 100	0 to 25	≥ 75
CS(=O)(=O)Nc1ccn(C(=O)N2CCC3(CCCN3Cc3cc(Cl)cc(C(F)(F)F)c3)CC2)n1 [Example 198, N-(1-(1-(3-chloro-5-(trifluoromethyl)benzyl)-1,8-diazaspiro[4.5]decane-8-carbonyl)-1H-pyrazol-3-yl) methanesulfonamide]	≤ 100	25 to 50	≥ 75
CS(=O)(=O)Nc1ccn(C(=O)N2CCN(Cc3ccc(C(F)(F)F)cc3N3CC4COCC4C3)CC2)n1 (stereo not drawn) [Example 205, N-(1-(4-(2-(tetrahydro-1H-furo[3,4-c]pyrrol-5(3H)-yl)-4-(trifluoromethyl)benzyl)piperazine-1-carbonyl)-1H-pyrazol-3-yl) methanesulfonamide]	≤ 100	0 to 25	≥ 75
CS(=O)(=O)Nc1ccn(C(=O)N2CCN(Cc3ccc(C(F)(F)F)cc3N3C4CCC3COC4)CC2)n1 [Example 206, N-(1-(4-(2-(3-oxa-8-azabicyclo[3.2.1]octan-8-yl)-4-(trifluoromethyl)benzyl)piperazine-1-carbonyl)-1H-pyrazol-3-yl) methanesulfonamide]	≤ 100	0 to 25	≥ 75
CS(=O)(=O)Nc1ccn(C(=O)N2CCN(Cc3ccc(C(F)(F)F)cc3N3C4CCC3CN(S(C)(=O)=O)C4)CC2)n1 [Example 208, N-(1-(4-(2-(3-(methylsulfonyl)-3,8-diazabicyclo[3.2.1]octan-8-yl)-4-(trifluoromethyl)benzyl)piperazine-1-carbonyl)-1H-pyrazol-3-yl) methanesulfonamide]	≤ 100	0 to 25	≥ 75
CS(=O)(=O)Nc1ccn(C(=O)N2CCN(Cc3ccc(C(F)(F)F)cc3N3CCC(S(C)(=O)=O)CC3)CC2)n1 [Example 209, N-(1-(4-(2-(4-(methylsulfonyl)piperidin-1-yl)-4-(trifluoromethyl)benzyl)piperazine-1-carbonyl)-1H-pyrazol-3-yl) methanesulfonamide]	≤ 100	0 to 25	≥ 75
C#Cc1ccc(CN2CCN(C(=O)n3ccc(NC(C)=O)n3)CC2)cc1 [Example 210, N-(1-(4-(4-ethynylbenzyl)piperazine-1-carbonyl)-1H-pyrazol-3-yl) acetamide]	≤ 100	0 to 25	≥ 75
CS(=O)(=O)Nc1ccn(C(=O)N2CCN(Cc3ccc(C(F)(F)F)cc3-c3nccs3)CC2)n1 [Example 211, N-(1-(4-(2-(thiazol-2-yl)-4-(trifluoromethyl)benzyl)piperazine-1-carbonyl)-1H-pyrazol-3-yl) methanesulfonamide]	≤ 100	0 to 25	≥ 75
CS(=O)(=O)Nc1ccn(C(=O)N2CCN(Cc3ccc(C(F)(F)F)cc3-c3ccc(C(F)(F)F)nc3)CC2)n1 [Example 212, N-(1-(4-(4-(trifluoromethyl)-2-(6-(trifluoromethyl)pyridin-3-yl)benzyl)piperazine-1-carbonyl)-1H-pyrazol-3-yl) methanesulfonamide]	100 to 1000	0 to 25	≥ 75
CS(=O)(=O)Nc1ccn(C(=O)N2CCN(Cc3ccc(C(F)(F)F)cc3-c3ccn(CC(=O)O)n3)CC2)n1 [Example 213, 2-(3-(2-((4-(3-(methylsulfonamido)-1H-pyrazole-1-carbonyl)piperazin-1-yl)methyl)-5-(trifluoromethyl)phenyl)-1H-pyrazol-1-yl)acetic acid]	100 to 1000	0 to 25	≥ 75
CC(=O)N1CC2CN(c3cc(CN4CCN(C(=O)n5ccc(NS(C)(=O)=O)n5)CC4)ccc3Cl)CC2C1 (stereo not drawn) [Example 215, N-(1-(4-(3-(5-acetylhexahydro-pyrrolo[3,4-c]pyrrol-2(1H)-yl)-4-chlorobenzyl)piperazine-1-carbonyl)-1H-pyrazol-3-yl) methanesulfonamide]	100 to 1000	0 to 25	≥ 75
CC(=O)N1CCC2(CC1)CCN(c1cc(CN3CCN(C(=O)n4ccc(NS(C)(=O)=O)n4)CC3)ccc1Cl)C2 [Example 216, N-(1-(4-(3-(8-acetyl-2,8-diazaspiro[4.5]decan-2-yl)-4-chlorobenzyl)piperazine-1-carbonyl)-1H-pyrazol-3-yl) methanesulfonamide]	100 to 1000	0 to 25	≥ 75
